In assay [1] the target is T1, PhoU (Escherichia coli, UniProt P0A9K7).
T1 construct: His; made in house
Put plainly: PhoU phosphatase substrate specificity. Format: biochemical, E. coli. Conditions: pH5, pH7 and pH8. The protocol: Different substrates for the PhoU phosphatase activity were tested. […] For PhoU, the substrates acetyl-P, carbamoyl-P, imido-di phosphate (imido-di-P), r-nitrophenyl phosphate (rNPP), β-Nicotinamide adenine dinucleotide phosphate (NADP), Glucose-1,6-bisphosphate (Glucose-1,6-bisP) were tested at pH5, pH7, and pH8 condition, as potential PhoU phosphatase activity.

For assay [2], the system named is PhoU mutant (JHU-313). Put plainly: MIC/MBC by serial two-fold dilutions in LB broth. The class given is cell-based, E. coli. The conditions noted are these: Escherichia coli, 16 h at 37° C.
In assay [3] the test system is JHU-313 containing pPhoU. The assay is described as follows: MIC/MBC by serial two-fold dilutions in LB broth. The class given is cell-based, E. coli. Conditions: Escherichia coli, 16 h at 37° C.
The subject of assay [4] is wild type strain W3110. Put plainly: microbe, parasite or virus in culture. Format: cell-based, E. coli. The conditions noted are these: Escherichia coli, W3110, LB broth, 16 h at 37° C.
Assay [5] relates to PhoU mutant (JHU-313). The assay is described as follows: Sequential antibiotic exposure of ampicillin persisters (CFU). Format: cell-based, E. coli. The conditions noted are these: 20 h after 1.5 h ampicillin pre-exposure; ampicillin 100, gentamicin 20, trimethoprim 16, norfloxacin 5 μg/ml.
Assay [6] concerns JHU-313 containing pVector. The assay is described as follows: MIC/MBC by serial two-fold dilutions in LB broth. The class given is cell-based, E. coli. Conditions: Escherichia coli, 16 h at 37° C.
Assay [7] deals with wild type strain W3110. Format: cell-based.
Assay [8] concerns PhoU transposon mutant (JHU-313). The class given is cell-based.
Assay [9] relates to wild type strain W3110. The class given is cell-based, E. coli. The conditions noted are these: 20 h after 1.5 h ampicillin pre-exposure; ampicillin 100, gentamicin 20, trimethoprim 16, norfloxacin 5 μg/ml.
The test system of assay [10] is PhoU deletion mutant (ΔphoU). The class given is cell-based.
Assay [11] deals with W3110. The assay is described as follows: microbe, parasite or virus in culture. Conditions: Escherichia coli, read-out: zone inhibition.
Experimental: (§1) The sensitivity of the bacterial strains to antibiotics or peroxide was determined by Kirby-Bauer's paper disc assay as measured by zone inhibition in millimeters.
(§2) The sensitivity of bacterial strains to antibiotics or stresses was also assessed by the Kirby-Bauer method (2) using paper discs. E. coli bacteria were grown to log phase (10^8 bacteria) in LB broth. An inoculum from this culture was spread across the surfaces of LB plates to provide confluent growth. Nitrocellulose discs (7 mm in diameter) soaked with appropriate antibiotics or stress agents (100 mM H2O2, were placed on the agar surface). After incubation at 37° C. for 48 h, the diameter of the zone of growth inhibition was measured and scored according to the size of the zone of inhibition, which is directly proportional to the sensitivity of the organism to the antibiotic.
The subject of assay [12] is JHU-313. Put plainly: Kirby-Bauer paper disc assay, zone inhibition. Conditions: Escherichia coli, read-out: zone inhibition.
Experimental: as §1, §2
Assay [13] has as its system JHU-313 containing pVector. The assay is described as follows: Kirby-Bauer paper disc assay, zone inhibition. The conditions noted are these: Escherichia coli, read-out: zone inhibition.
Experimental: as §1, §2
Assay [14] deals with JHU-313 containing pPhoU. Put plainly: Kirby-Bauer paper disc assay, zone inhibition. Conditions: Escherichia coli, read-out: zone inhibition.
Experimental: as §1, §2
The mark [15] stands for this setting: log phase, 1 week, Ap100, Norf3.
Setting [16] is: log phase, 5 hr, ampicillin 100 μg/ml (Ap100), norfloxacin 3 μg/ml (Norf3).
Where [17] appears, read: log phase, 3 days, Ap100, Norf3.
Where [18] appears, read: log phase, 5 days, Ap100, Norf3.
[19] abbreviates: log phase, 10 days, Ap100, Norf3.
The mark [20] stands for this setting: log phase, ampicillin 100 μg/ml, norfloxacin 3 μg/ml.
The mark [21] stands for this setting: stationary phase, 3 μg/ml, 120 hr exposure.
Setting [22] is: stationary phase, 1 week, Ap100, Norf3.
Where [23] appears, read: stationary phase, 5 hr, ampicillin 100 μg/ml (Ap100), norfloxacin 3 μg/ml (Norf3).
The mark [24] stands for this setting: stationary phase, 1 day, Ap100, Norf3.
The mark [25] stands for this setting: stationary phase, 3 days, Ap100, Norf3.
The mark [26] stands for this setting: stationary phase, 5 days, Ap100, Norf3.
[27] abbreviates: stationary phase, 10 days, Ap100, Norf3.
The mark [28] stands for this setting: stationary phase, norfloxacin 3 μg/ml.

Molecules are shown by their SMILES. Values after ≈ are worked out from the molar mass of the structure shown. Like-named read-outs stand apart in the source and are kept apart here.

T1 sequence (P0A9K7 whole entry): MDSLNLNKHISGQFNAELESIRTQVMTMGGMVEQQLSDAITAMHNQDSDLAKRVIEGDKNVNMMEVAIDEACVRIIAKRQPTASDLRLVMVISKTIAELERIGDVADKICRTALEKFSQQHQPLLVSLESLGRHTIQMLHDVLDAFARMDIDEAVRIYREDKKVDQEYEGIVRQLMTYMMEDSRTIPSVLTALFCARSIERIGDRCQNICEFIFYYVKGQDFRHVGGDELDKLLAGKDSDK

Take `O=P(O)(O)OC[C@H]1O[C@H](OP(=O)(O)O)[C@H](O)[C@@H](O)[C@@H]1O` [Glucose-1,6-bisP, Glucose-1,6-bisphosphate]: the “rank as PhoU phosphatase substrate” value in assay [1] is on record as “acetyl-P>rNPP>carbamoyl-P>Glucose-1,6-bisP>NADP”.
With `CCn1cc(C(=O)O)c(=O)c2cc(F)c(N3CCNCC3)cc21` [Norfloxacin, norfloxacin], the MBC in [2] (read-out: MBC) was 0.5 µg/mL (≈ 1.57 µM); in [3] (read-out: MBC), 1 µg/mL (≈ 3.13 µM); in [4] (read-out: MBC) it was 1 µg/mL (≈ 3.13 µM); in assay [6] (read-out: MBC), 0.5 µg/mL (≈ 1.57 µM). Further, the MIC in assay [2] (read-out: MIC) stood at 0.125 µg/mL (≈ 0.391 µM); in assay [3] (read-out: MIC), 0.5 µg/mL (≈ 1.57 µM); in [4] (read-out: MIC), 0.5 µg/mL (≈ 1.57 µM); in assay [6] (read-out: MIC) it was 0.125 µg/mL (≈ 0.391 µM). The “CFU after second antibiotic exposure” value was 0 CFU/ml in assay [5] and 7 × 10^5 CFU/ml in assay [9]. The CFU is recorded as 0 CFU in assay [7] (setting [15]); 1 × 10^8 CFU in [7] (setting [16]); 4 × 10^6 CFU in assay [7] (log phase, 1 day, Ap100, Norf3); 5 × 10^4 CFU in [7] (setting [17]); 7 × 10^2 CFU in assay [7] (setting [18]); 0 CFU in assay [7] (setting [19]). Also, the CFU in [7] (setting [22]) was 1.5 × 10^4 CFU; in assay [7] (setting [23]), 5 × 10^9 CFU; in assay [7] (setting [24]), 4 × 10^9 CFU; in assay [7] (setting [25]) it was 1 × 10^8 CFU; in assay [7] (setting [26]) it was 4 × 10^6 CFU; in [7] (setting [27]), 2 × 10^2 CFU. The CFU in assay [8] (setting [15]) is on record as 0 CFU; in assay [8] (setting [16]), 2 × 10^7 CFU; in assay [8] (log phase, 1 day, Ap100, Norf3), 4 × 10^5 CFU; in assay [8] (setting [17]) it was 0 CFU; in assay [8] (setting [18]), 0 CFU; in assay [8] (setting [19]), 0 CFU. For the same molecule, the CFU in assay [8] (setting [22]) is given as 0 CFU; in assay [8] (setting [23]), 3 × 10^8 CFU; in assay [8] (setting [24]), 4.5 × 10^7 CFU; in assay [8] (setting [25]) it was 2 × 10^5 CFU; in [8] (setting [26]), 0 CFU; in [8] (setting [27]), 0 CFU. The CFU in [10] (setting [15]) is on record as 0 CFU; in assay [10] (setting [16]), 5 × 10^7 CFU; in assay [10] (log phase, 1 day, Ap100, Norf3), 1 × 10^6 CFU; in [10] (setting [17]) it was 0 CFU; in assay [10] (setting [18]), 0 CFU; in [10] (setting [19]), 0 CFU. For the same molecule, the CFU in assay [10] (setting [22]) is reported as 0 CFU; in [10] (setting [23]) it was 6 × 10^8 CFU; in assay [10] (setting [24]), 2 × 10^8 CFU; in assay [10] (setting [25]), 3 × 10^5 CFU; in assay [10] (setting [26]) it was 0 CFU; in assay [10] (setting [27]) it was 0 CFU. For the same molecule, the “time to killing of all cells” value in assay [7] (setting [20]) amounted to 5 days; in assay [8] (setting [20]), 1 days; in assay [10] (setting [20]), 1 days. In addition, the viable bacteria left result in assay [7] (setting [21]) is on record as “about 10^7 CFU/ml”; in assay [8] (setting [21]), “no viable bacteria were left”. The “time to complete killing” value in assay [8] (setting [28]) and in assay [10] (setting [28]) was at most 5 days in each case. Besides, the zone of inhibition at 0.1 µg/mL turned out to be 24 mm in assay [11], 28 mm in assay [12], 29 mm in assay [13] and 27 mm in assay [14]. Besides, the zone of inhibition at 0.5 µg/mL in assay [11] came out at 27 mm; in [12] it was 30 mm; in [13], 35 mm; in assay [14], 31 mm. Further, the zone of inhibition at 2 µg/mL in [11] stood at 30 mm; in assay [12], 34 mm; in assay [13], 40 mm; in [14], 35 mm. The zone of inhibition at 4 µg/mL was determined as 32 mm in [11], 37 mm in assay [12], 44 mm in assay [13] and 36 mm in assay [14].
`CC(=O)OP(=O)(O)O` [acetyl-P, acetyl phosphate]: the “rank as PhoU phosphatase substrate” value in [1] was “acetyl-P>rNPP>carbamoyl-P>Glucose-1,6-bisP>NADP”.
Same read-out and setting: the value for `NC(=O)OP(=O)(O)O` [carbamoyl-P, carbamoyl phosphate] was “acetyl-P>rNPP>carbamoyl-P>Glucose-1,6-bisP>NADP”; that for `O=[N+]([O-])c1ccc(OP(=O)(O)O)cc1` [rNPP, r-nitrophenyl phosphate] was “acetyl-P>rNPP>carbamoyl-P>Glucose-1,6-bisP>NADP”.

These data come from patent US20100210602A1, “PhoU (PerF), A P[…] INVOLVED IN [sequence] FORMATION AND TOLERANCE TO MULTIPLE ANTIBIOTICS AND [sequence] AS A DRUG TARGET FOR [sequence] BACTERIA” (priority 2006, published 2010).
